Source: US11000033B2, “Ketone or oxime compound, and herbicide” (NISSAN CHEMICAL CORPORATION, priority 2014, dated 2021)

What was measured:
Assay type in all cases: in vivo
[1] = tested on: Echinochloa crus-galli var. crus-galli; test: Test Example 4: herbicidal effect by soil treatment (symbol H); settings: 320 g/ha
In short: (§1)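 Seeds were sown in sterilized diluvial soil, covered with about 1.5 cm of soil, and the soil surface was sprayed with a water-diluted emulsion of the compound at a predetermined rate. Plants grew in a greenhouse at 25° C. to 30° C.; effects were scored visually 3 weeks after application.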

Chenopodium album [2] = test: Test Example 4: herbicidal effect by soil treatment (symbol O); settings: 320 g/ha
In short: as §1

Leptochloa chinensis = test: Test Example 3: herbicidal effect by foliage application, Wagner pot (symbol D); settings: application herbicide amount 320 g/ha
In short: (§2)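 Foliar spray of a water-diluted emulsion at a predetermined herbicide amount, applied to 14-day-old plants. Seedlings were raised in flooded alluvial soil (0.1–0.5 cm water) at 25–30 °C in a greenhouse. Injury was rated after 3 weeks against fixed criteria.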

rice = test: Test Example 4: effect on crop by soil treatment (symbol b); settings: 320 g/ha
In short: (§3)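 The test used sterilized diluvial soil. Seed was set down in spots and overlaid with about 1.5 cm of soil before growth in a greenhouse kept at 25° C. to 30° C.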

Alopecurus myosuroides = test: Test Example 5: herbicidal effect by foliage application, plastic box (symbol J); settings: 320 g/ha, 3 weeks after application
In short: (§4)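 Effect is rated 3 weeks after a foliar spray of water-diluted emulsion concentrate at a predetermined herbicide amount. Plants had grown 14 days in a 25° C. to 30° C. greenhouse from seed in sterilized diluvial soil.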

rice plant = test: Test Example 5: effect on crop by foliage application, plastic box (symbol b); settings: 320 g/ha, 3 weeks after application
In short: (§5)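 Greenhouse test at 25° C. to 30° C. Seeds of crops and weeds were spot-sown in boxes of sterilized diluvial soil under roughly 1.5 cm soil cover, then grown for foliage treatment.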

Veronica persica = test: Test Example 5: herbicidal effect by foliage application, plastic box (symbol R); settings: 320 g/ha, 3 weeks after application
In short: as §4

Cyperus difformis = test: Test Example 3: herbicidal effect by foliage application, Wagner pot (symbol E); settings: application herbicide amount 320 g/ha
In short: as §2

Chenopodium album [3] = test: Test Example 5: herbicidal effect by foliage application, plastic box (symbol O); settings: 320 g/ha, 3 weeks after application
In short: as §4

Scirpus juncoides = test: Test Example 1: herbicidal activity, application before weed generation in submerged conditions (symbol B); settings: application herbicide amount 320 g/ha
In short: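 Paddy pre-emergence test. Formulated emulsion, water-diluted to a predetermined rate, is applied to floodwater on sowing day; rice transplanted at 2.5 leaves. Effect read at 3 weeks on a 0–5 herbicidal-ratio scale.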

Stellaria media = test: Test Example 5: herbicidal effect by foliage application, plastic box (symbol P); settings: 320 g/ha, 3 weeks after application
In short: as §4

soybean = test: Test Example 5: effect on crop by foliage application, plastic box (symbol d); settings: 320 g/ha, 3 weeks after application
In short: as §5

Abutilon theophrasti = test: Test Example 5: herbicidal effect by foliage application, plastic box (symbol M); settings: 320 g/ha, 3 weeks after application
In short: as §4

Setaria viridis = test: Test Example 5: herbicidal effect by foliage application, plastic box (symbol G); settings: 320 g/ha, 3 weeks after application
In short: as §4

Galium spurium = test: Test Example 5: herbicidal effect by foliage application, plastic box (symbol Q); settings: 320 g/ha, 3 weeks after application
In short: as §4

Lolium multiflorum Lam. = test: Test Example 4: herbicidal effect by soil treatment (symbol K); settings: 320 g/ha
In short: as §1

Digitaria ciliaris = test: Test Example 4: herbicidal effect by soil treatment (symbol F); settings: 320 g/ha
In short: as §1

beet = test: Test Example 4: effect on crop by soil treatment (symbol f); settings: 320 g/ha
In short: as §3

Amaranthus retroflexus = test: Test Example 4: herbicidal effect by soil treatment (symbol N); settings: 320 g/ha
In short: as §1

SMILES	H: Echinochloa crus-galli var. crus-galli, herbicidal effect grade [1]	O: Chenopodium album, herbicidal effect grade (Chenopodium album [2])	herbicidal effect on D (Leptochloa chinensis), grade 0-5 (Leptochloa chinensis)	b: directly sowed rice plant, effect grade on crop (rice)	J: Alopecurus myosuroides, herbicidal effect (criteria 0-5) (Alopecurus myosuroides)	b: directly sowed rice plant, effect on crop (criteria 0-5) (rice plant)	R: Veronica persica, herbicidal effect (criteria 0-5) (Veronica persica)	herbicidal effect on E, grade 0-5 (Cyperus difformis)	O: Chenopodium album, herbicidal effect (criteria 0-5) (Chenopodium album [3])	Herbicidal effect grade, B: Scirpus juncoides (Scirpus juncoides)	P: Stellaria media, herbicidal effect (criteria 0-5) (Stellaria media)	d: soybean, effect on crop (criteria 0-5) (soybean)	M: Abutilon theophrasti, herbicidal effect (criteria 0-5) (Abutilon theophrasti)	G: Setaria viridis, herbicidal effect (criteria 0-5) (Setaria viridis)	Q: Galium spurium, herbicidal effect (criteria 0-5) (Galium spurium)	K: Lolium multiflorum Lam., herbicidal effect grade (Lolium multiflorum Lam.)	F: Digitaria ciliaris, herbicidal effect grade (Digitaria ciliaris)	f: beet, effect grade on crop (beet)	N: Amaranthus retroflexus, herbicidal effect grade (Amaranthus retroflexus)	J: Alopecurus myosuroides, herbicidal effect grade (Alopecurus myosuroides)	other results
CON=C(C)CC1CC(OC(=O)c2ccccc2C(F)(F)F)=C(c2c(C)cc(C)cc2C)C1=O (stereo not shown) [1-154]	5 (Herbicidal ratio of 90% or more (almost completely withered))	0 (Herbicidal ratio of 5% or lower (almost no effect))	5 (Herbicidal ratio of 90% or more (almost completely withered))	5 (Herbicidal ratio of 90% or more (almost completely withered))	5 (Herbicidal ratio of 90% or more (almost completely withered))	5 (Herbicidal ratio of 90% or more (almost completely withered))	3 (Herbicidal ratio of 40% or higher and lower than 70%)	5 (Herbicidal ratio of 90% or more (almost completely withered))	1 (Herbicidal ratio of 5% or higher and lower than 20%)	4 (Herbicidal ratio of 70% or higher and lower than 90%)	2 (Herbicidal ratio of 20% or higher and lower than 40%)	3 (Herbicidal ratio of 40% or higher and lower than 70%)	4 (Herbicidal ratio of 70% or higher and lower than 90%)	5 (Herbicidal ratio of 90% or more (almost completely withered))	3 (Herbicidal ratio of 40% or higher and lower than 70%)	5 (Herbicidal ratio of 90% or more (almost completely withered))	5 (Herbicidal ratio of 90% or more (almost completely withered))	0 (Herbicidal ratio of 5% or lower (almost no effect))	4 (Herbicidal ratio of 70% or higher and lower than 90%)		
CON=C(C)CC1CC(OC(=O)c2ccccc2OC(F)(F)F)=C(c2c(C)cc(C)cc2C)C1=O (stereo not shown) [1-155]	5 (Herbicidal ratio of 90% or more (almost completely withered))	0 (Herbicidal ratio of 5% or lower (almost no effect))	5 (Herbicidal ratio of 90% or more (almost completely withered))	5 (Herbicidal ratio of 90% or more (almost completely withered))	5 (Herbicidal ratio of 90% or more (almost completely withered))	5 (Herbicidal ratio of 90% or more (almost completely withered))	3 (Herbicidal ratio of 40% or higher and lower than 70%)	5 (Herbicidal ratio of 90% or more (almost completely withered))	0 (Herbicidal ratio of 5% or lower (almost no effect))	5 (Herbicidal ratio of 90% or more (almost completely withered))	2 (Herbicidal ratio of 20% or higher and lower than 40%)	3 (Herbicidal ratio of 40% or higher and lower than 70%)	4 (Herbicidal ratio of 70% or higher and lower than 90%)	5 (Herbicidal ratio of 90% or more (almost completely withered))	0 (Herbicidal ratio of 5% or lower (almost no effect))	5 (Herbicidal ratio of 90% or more (almost completely withered))	5 (Herbicidal ratio of 90% or more (almost completely withered))	0 (Herbicidal ratio of 5% or lower (almost no effect))	5 (Herbicidal ratio of 90% or more (almost completely withered))		
CON=C(C)CC1CC(OC(=O)Cc2ccc(OC)cc2)=C(c2c(C)cc(C)cc2C)C1=O (stereo not shown) [1-156]	5 (Herbicidal ratio of 90% or more (almost completely withered))	0 (Herbicidal ratio of 5% or lower (almost no effect))	5 (Herbicidal ratio of 90% or more (almost completely withered))	5 (Herbicidal ratio of 90% or more (almost completely withered))				5 (Herbicidal ratio of 90% or more (almost completely withered))		5 (Herbicidal ratio of 90% or more (almost completely withered))						5 (Herbicidal ratio of 90% or more (almost completely withered))	5 (Herbicidal ratio of 90% or more (almost completely withered))	1 (Herbicidal ratio of 5% or higher and lower than 20%)	5 (Herbicidal ratio of 90% or more (almost completely withered))	5 (Herbicidal ratio of 90% or more (almost completely withered))	b: directly sowed rice plant, effect on crop grade (rice plant): 5 (Herbicidal ratio of 90% or more (almost completely withered)); R: Veronica persica, herbicidal effect grade (Veronica persica): 4 (Herbicidal ratio of 70% or higher and lower than 90%); O: Chenopodium album, herbicidal effect grade (Chenopodium album [3]): 2 (Herbicidal ratio of 20% or higher and lower than 40%); P: Stellaria media, herbicidal effect grade (Stellaria media): 3 (Herbicidal ratio of 40% or higher and lower than 70%); d: soybean, effect on crop grade (soybean): 3 (Herbicidal ratio of 40% or higher and lower than 70%); M: Abutilon theophrasti, herbicidal effect grade (Abutilon theophrasti): 4 (Herbicidal ratio of 70% or higher and lower than 90%); G: Setaria viridis, herbicidal effect grade (Setaria viridis): 5 (Herbicidal ratio of 90% or more (almost completely withered)); Q: Galium spurium, herbicidal effect grade (Galium spurium): 3 (Herbicidal ratio of 40% or higher and lower than 70%)
CON=C(C)CC1CC(OC(=O)N(C)c2ccccc2)=C(c2c(C)cc(C)cc2C)C1=O (stereo not shown) [1-159]	3 (Herbicidal ratio of 40% or higher and lower than 70%)	0 (Herbicidal ratio of 5% or lower (almost no effect))	5 (Herbicidal ratio of 90% or more (almost completely withered))	3 (Herbicidal ratio of 40% or higher and lower than 70%)				4 (Herbicidal ratio of 70% or higher and lower than 90%)		0 (Herbicidal ratio of 5% or lower (almost no effect))						5 (Herbicidal ratio of 90% or more (almost completely withered))	4 (Herbicidal ratio of 70% or higher and lower than 90%)	0 (Herbicidal ratio of 5% or lower (almost no effect))	0 (Herbicidal ratio of 5% or lower (almost no effect))	5 (Herbicidal ratio of 90% or more (almost completely withered))	b: directly sowed rice plant, effect on crop grade (rice plant): 3 (Herbicidal ratio of 40% or higher and lower than 70%); R: Veronica persica, herbicidal effect grade (Veronica persica): 0 (Herbicidal ratio of 5% or lower (almost no effect)); O: Chenopodium album, herbicidal effect grade (Chenopodium album [3]): 0 (Herbicidal ratio of 5% or lower (almost no effect)); P: Stellaria media, herbicidal effect grade (Stellaria media): 0 (Herbicidal ratio of 5% or lower (almost no effect)); d: soybean, effect on crop grade (soybean): 1 (Herbicidal ratio of 5% or higher and lower than 20%); M: Abutilon theophrasti, herbicidal effect grade (Abutilon theophrasti): 4 (Herbicidal ratio of 70% or higher and lower than 90%); G: Setaria viridis, herbicidal effect grade (Setaria viridis): 1 (Herbicidal ratio of 5% or higher and lower than 20%); Q: Galium spurium, herbicidal effect grade (Galium spurium): 0 (Herbicidal ratio of 5% or lower (almost no effect))
